In US6215002A, “Pyrrolopyrrolone derivatives as inhibitors of neutrophil elastase” (priority 1996, dated 2001):
Where a name gives a salt, the structure may show the parent alone.

Target: T1, human neutrophil elastase (Homo sapiens, UniProt P08246)
T1 sequence (P08246 30-267): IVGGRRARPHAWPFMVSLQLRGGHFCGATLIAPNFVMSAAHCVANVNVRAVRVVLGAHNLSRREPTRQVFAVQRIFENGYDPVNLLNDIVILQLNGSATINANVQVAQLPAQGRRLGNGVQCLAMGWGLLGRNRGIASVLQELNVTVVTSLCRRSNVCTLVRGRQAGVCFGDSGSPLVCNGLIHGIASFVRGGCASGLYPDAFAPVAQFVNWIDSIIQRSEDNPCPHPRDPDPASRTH
Test: In vitro assay of human neutrophil elastase (HNE)
Format: biochemical
Details: 118 nM purified human neutrophil elastase, pH 8.6, 15 min incubation at 30° C., MeO-succinyl-alanyl-alanyl-prolyl-valyl-p-nitroanilide substrate; read-out: HNE IC50
Procedure, shortened: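 Residual activity was taken as the 10 min rate of absorbance rise at 405 nm after adding 0.6 mM MeO-succinyl-AAPV-p-nitroanilide. Curve fitting of activity against concentration gave IC50.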

Compound | IC50 [nM]
CCC[C@H]1C(=O)N(S(C)(=O)=O)[C@H]2CCN(C(=O)CCCN3CCCCC3)[C@H]12 (relative stereo) [Example 87, rel-(3R,3aR,6aS)-1-Methanesulfonyl-4-(4-piperidin-1-yl-butyryl)-3-propyl-hexahydro-pyrrolo[3,2-b]pyrrol-2-one DL-tartrate] | 96
CCC[C@H]1C(=O)N(S(C)(=O)=O)[C@H]2CCN(C(=O)CCCN(C)c3ccccc3)[C@H]12 (relative stereo) [Example 88, rel-(3R,3aR,6aS)-1-Methanesulfonyl-4-[4-(methyl-phenyl-amino)-butyryl]-3-propyl-hexahydro-pyrrolo[3,2-b]pyrrol-2-one hydrochloride] | 75
CCC[C@H]1C(=O)N(S(C)(=O)=O)[C@H]2CCN(C(=O)CCCN3CCCC3)[C@H]12 (relative stereo) [Example 89, rel-(3R,3aR,6aS)-1-Methanesulfonyl-3-propyl-4-(4-pyrrolidin-1-yl-butyryl)-hexahydro-pyrrolo[3,2-b]pyrrol-2-one hydrochloride] | 183
CCC[C@H]1C(=O)N(S(C)(=O)=O)[C@H]2CCN(C(=O)CCN(C)C)[C@H]12 (relative stereo) [Example 90, rel-(3R,3aR,6aS)-4-(3-Dimethylamino-propionyl)-1-methanesulfonyl-3-propyl-hexahydro-pyrrolo[3,2-b]pyrrol-2-one hydrochloride] | 305
CCC[C@H]1C(=O)N(S(C)(=O)=O)[C@H]2CCN(C(=O)CCN3CCCC3)[C@H]12 (relative stereo) [Example 93, rel-(3R,3aR,6aS)-1-Methanesulfonyl-3-propyl-4-(3-pyrrolidin-1-yl-propionyl)-hexahydro-pyrrolo[3,2-b]pyrrol-2-one hydrochloride] | 89
CCC[C@H]1C(=O)N(S(C)(=O)=O)[C@H]2CCN(C(=O)CCN3CCN(C)CC3)[C@H]12 (relative stereo) [Example 94, rel-(3R,3aR,6aS)-1-Methanesulfonyl-4-[3-(4-methyl-piperazin-1-yl)-propionyl]-3-propyl-hexahydro-pyrrolo[3,2-b]pyrrol-2-one dihydrochloride] | 81
CCC[C@H]1C(=O)N(S(C)(=O)=O)[C@H]2CCN(C(=O)CCNC(C)=O)[C@H]12 (relative stereo) [Example 96, rel-N-[3-(4-Methanesulfonyl-5-oxo-6R-propyl-hexahydro-(3aS,6aR)-pyrrolo[3,2-b]pyrrol-1-yl)-3-oxo-propyl]-acetamide] | 134
CCC[C@H]1C(=O)N(S(C)(=O)=O)[C@H]2CCN(C(=O)CCN3CCC3)[C@H]12 (relative stereo) [Example 97, rel-(3R,3aR,6aS)-4-(3-Azetidin-1-yl-propionyl)-1-methanesulfonyl-3-propyl-hexahydro-pyrrolo[3,2-b]pyrrol-2-one hydrochloride] | 202
CCC[C@H]1C(=O)N(S(C)(=O)=O)[C@H]2CCN(C(=O)CCN3CCC(C(N)=O)CC3)[C@H]12 (relative stereo) [Example 98, rel-(3R,3aR,6aS)-1-[3-(4-Methanesulfonyl-5-oxo-6-propyl-hexahydro-pyrrolo[3,2-b]pyrrol-1-yl)-3-oxo-propyl]-piperidine-4-carboxylic acid amide hydrochloride] | 159
CCC[C@H]1C(=O)N(S(C)(=O)=O)[C@H]2CCN(C(=O)CN3CCCCC3)[C@H]12 (relative stereo) [Example 100, rel-(3R,3aR,6aS)-1-Methanesulfonyl-4-(piperidin-1-yl-acetyl)-3-propyl-hexahydro-pyrrol[3,2-b]pyrrol-2-one hydrochloride] | 650
CCC[C@H]1C(=O)N(S(C)(=O)=O)[C@H]2CCN(C(=O)CN(C)C)[C@H]12 (relative stereo) [Example 102, rel-(3R,3aR,6aS)-4-Dimethylaminoacetyl-1-methanesulfonyl-3-propyl-hexahydro-pyrrolo[3,2-b]pyrrol-2-one hydrochloride] | 91
CCC[C@H]1C(=O)N(S(C)(=O)=O)[C@H]2CCN(C(=O)CN(C)c3ccccc3)[C@H]12 (relative stereo) [Example 103, rel-(3R,3aR,6aS)-1-Methanesulfonyl-4-[(methyl-phenyl-amino)-acetyl]-3-propyl-hexahydro-pyrrolo[3,2-b]pyrrol-2-one hydrochloride] | 104
CCC[C@H]1C(=O)N(S(C)(=O)=O)[C@H]2CCN(C(=O)CN3CCCCCC3)[C@H]12 (relative stereo) [Example 104, rel-(3R,3aR,6aS)-4-Azepin-1-yl-acetyl)-1-methanesulfonyl-3-propyl-hexahydro-pyrrolo[3,2-b]pyrrol-2-one hydrochloride] | 574
CCC[C@H]1C(=O)N(S(C)(=O)=O)[C@H]2CCN(C(=O)CN3CCN(C)CC3)[C@H]12 (relative stereo) [Example 105, rel-(3R,3aR,6aS)-1-Methanesulfonyl-4-[(4-methyl-piperazin-1-yl)-acetyl]-3-propyl-hexahydro-pyrrolo[3,2-b]pyrrol-2-one hydrochloride] | 193
CCC[C@H]1C(=O)N(S(C)(=O)=O)[C@H]2CCN(C(=O)CN)[C@H]12 (relative stereo) [Example 109, rel-(3R,3aR,6aS)-4-Aminoacetyl-1-methanesulfonyl-3-propyl-hexahydro-pyrrolo[3,2-b]pyrrol-2-one trifluoroacetate] | 96

Other lines, results leading:

IC50 [nM] | Compound
64 | CCC[C@H]1C(=O)N(S(C)(=O)=O)[C@H]2CCN(C(=O)CCN(CC)CC)[C@H]12 (relative stereo) [Example 91, rel-(3R,3aR,6aS)-4-(3-Diethylamino-propionyl)-1-methanesulfonyl-3-propyl-hexahydro-pyrrolo-3,2-b]pyrrol-2-one hydrochloride]
70 | CCC[C@H]1C(=O)N(S(C)(=O)=O)[C@H]2CCN(C(=O)CCN3C(C)CCCC3C)[C@H]12 (relative stereo) [Example 92, rel-(3R,3aR,6aS)-4-[3-(2,6-Dimethyl-piperidin-1-yl)-propionyl]-1-methanesulfonyl-3-propyl-hexahydro-pyrrolo[3,2-b]pyrrol-2-one hydrochloride]
84 | CCC[C@H]1C(=O)N(S(C)(=O)=O)[C@H]2CCN(C(=O)CCC(N)=O)[C@H]12 (relative stereo) [Example 95, rel-4-(4-Methanesulfonyl-5-oxo-6R-propyl-hexahydro-(3aS,6aR)-pyrrolo[3,2-b]pyrrol-1-yl)-4-oxo-butyramide]
79 | CCC[C@H]1C(=O)N(S(C)(=O)=O)[C@H]2CCN(C(=O)CCN3CCCCCC3)[C@H]12 (relative stereo) [Example 99, hydrochloride]
169 | CCC[C@H]1C(=O)N(S(C)(=O)=O)[C@H]2CCN(C(=O)CN(CC)CC)[C@H]12 (relative stereo) [Example 101, rel-(3R,3aR,6aS)-4-Diethylaminoacetyl-1-methanesulfonyl-3-propyl-hexahydro-pyrrolo[3,2-b]pyrrol-2-one hydrochloride]
143 | CCC[C@H]1C(=O)N(S(C)(=O)=O)[C@H]2CCN(C(=O)CN3CCOCC3)[C@H]12 (relative stereo) [Example 107, rel-(3R,3aR,6aS)-1-Methanesulfonyl-4-morpholin-4-yl-acetyl)-3-propyl-hexahydro-pyrrolo[3,2-b]pyrrol-2-one hydrochloride]
481 | CCC[C@H]1C(=O)N(S(C)(=O)=O)[C@H]2CCN(C(=O)CN3CCCC3)[C@H]12 (relative stereo) [Example 108, hydrochloride]
